From PubChem BioAssay (NCI)
Where “and” joins values, the source holds several entries; their conditions need not be identical. Equal entries are not always repeated.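 Five compound concentrations were applied to cells in 96-well plates for 48 hours; endpoints were derived by simple linear interpolation of the resulting dose-response curve. Here, GI50 denotes the concentration required for 50% inhibition of growth. TGI denotes the concentration required for complete inhibition of growth.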

Assays:
Experiment in all cases: NCI tumour cell line growth inhibition, 48 h
MDA-N = test system: MDA-N
DLD-1 colon = test system: DLD-1 colon
SNB-78 CNS = test system: SNB-78 CNS
DMS 114 small cell lung = test system: DMS 114 small cell lung
KM20L2 colon = test system: KM20L2 colon
RXF-631 renal = test system: RXF-631 renal
LXFL 529 NSCLC = test system: LXFL 529 NSCLC
XF 498 CNS = test system: XF 498 CNS
HOP-18 NSCLC = test system: HOP-18 NSCLC
SN12K1 renal = test system: SN12K1 renal
P388/ADR leukemia = test system: P388/ADR leukemia
P388 leukemia = test system: P388 leukemia

Row | SMILES | TGI (MDA-N) | TGI (DLD-1 colon) | TGI (SNB-78 CNS) | TGI (DMS 114 small cell lung) | TGI (KM20L2 colon) | TGI (RXF-631 renal) [µM] | TGI (LXFL 529 NSCLC) [µM] | TGI (XF 498 CNS) | TGI (HOP-18 NSCLC) | further results
1 | [N-]=[N+]=Nc1cc(=O)[nH]nc1-c1ccccc1 | > 100 µM | – | – | – | – | – | – | – | – | –
2 | Cc1cccc(C)c1NC(=O)C(=O)C(C(=O)c1ccccc1-c1ccccc1)C1OC(=O)c2ccccc21 (configuration not stated) | – | 37.3 µM | > 100 µM | 32.4 µM | 67.7 µM | > 100 | 27.5 | 30.9 µM | – | –
3 | COc1ccc(-c2coc3c4c(ccc3c2=O)OCO4)cc1OC | > 100 µM | – | – | – | – | – | – | – | – | –
4 | COc1cc(C=O)c(-c2cc(OC)c(OC)cc2C=O)cc1OC | – | > 100 µM | > 100 µM | 88.3 µM | > 100 µM | – | > 100 | – | > 100 µM | –
5 | N#CC(C(=O)C(=O)Nc1ccc(Cl)cc1)c1ccccc1 (configuration not stated) | – | > 100 µM | > 100 µM | > 100 µM | > 100 µM | > 100 | > 100 | – | > 100 µM | –
6 | S=c1[nH]c(=S)c2nnn(-c3ccccc3)c2[nH]1 | – | > 100 µM | – | > 100 µM | > 100 µM | – | > 100 | > 100 µM | – | –
7 | Cc1nc([N+](=O)[O-])cn1CC(=N)N | – | > 100 µM | – | > 100 µM | > 100 µM | > 100 | > 100 | – | – | –
8 | Cc1nn(C(=O)c2ccc(Cl)cc2)c2c1C(/C=C/c1ccccc1)SC(N)=N2 (configuration not stated) | > 10 µM | – | – | – | – | – | – | – | – | –
9 | OCc1ccn2c1[C@@H](O)CC2 | > 100 µM | – | – | – | – | – | – | – | – | –
10 | CCC1CCc2c(c(=O)oc3c2cc(OC)c2cccc(OC)c23)C1 (configuration not stated) | – | > 100 µM | > 100 µM | – | > 100 µM | – | > 100 | 78.6 µM | > 100 µM | –
11 | CC[C@H]1CN2CCc3cc(OC)c(OC)cc3[C@@H]2C[C@@H]1C[C@H]1NCCc2c1[nH]c1ccc(O)cc21 | 0.0568 µM and 0.182 µM | 0.246 µM and 0.57 µM and 1.58 µM | 0.0828 µM and 0.0713 µM and 0.11 µM | 0.0184 µM and 0.0571 µM | 0.0858 µM and 0.47 µM and 0.241 µM | – | – | 0.0586 µM and 0.268 µM | 0.711 µM and 0.0824 µM and 0.449 µM | GI50 (DLD-1 colon): 0.144 µM; GI50 (HOP-18 NSCLC): 0.188 µM and 0.0283 µM; GI50 (SNB-78 CNS): 0.0273 µM and 0.0257 µM; GI50 (MDA-N): 0.0234 µM; GI50 (DMS 114 small cell lung): 0.0047 µM and 0.0133 µM; GI50 (KM20L2 colon): 0.0317 µM and 0.0549 µM; GI50 (XF 498 CNS): 0.0415 µM; TGI (SN12K1 renal): 2.64 µM; TGI (P388/ADR leukemia): > 100 µM
12 | c1ccc2c(c1)c1c(c3ccccc32)CN2CCCC2C1 (configuration not stated) | 14.2 µM | – | – | – | – | – | – | – | – | –
13 | COc1cc2c(OC)cc1CSCc1sc(C)c(c1Br)CSC2 | – | > 100 µM | > 100 µM | > 100 µM | > 100 µM | > 100 | > 100 | > 100 µM | > 100 µM | –
14 | Cc1cc(NS(=O)(=O)c2ccc(Nc3c4ccccc4nc4c(C(=O)N5CCN(CCO)CC5)ccc(Cl)c34)cc2)no1 | – | > 100 µM | – | > 100 µM | > 100 µM | > 100 | – | > 100 µM | – | –
15 | CCCN1CN(C(C(=O)N[C@@H]2C(=O)N3C2SC(C)(C)C3C(=O)O)c2ccc(O)cc2)CSC1=S (some centres not stated) | – | > 100 µM | – | 65.3 µM | > 100 µM | – | > 100 | > 100 µM | > 100 µM | –
16 | Cc1ccc(C)c(N=C2NC(=O)C(CC(=O)Nc3ccc(Cl)cc3Cl)S2)c1 (configuration not stated) | – | > 100 µM | – | > 100 µM | > 100 µM | – | > 100 | 90.5 µM | > 100 µM | –
17 | Cc1cc(S(=O)(=O)O)c(NC(=O)C(=O)Cc2cc(=O)oc3cc(O)ccc23)cc1Cl | – | > 100 µM | – | > 100 µM | > 100 µM | > 100 | – | – | > 100 µM | –
18 | CCOP(=O)(OCC)OC1C=CC2CCC1C2 (configuration not stated) | – | > 100 µM | > 100 µM | > 100 µM | > 100 µM | > 100 | > 100 | > 100 µM | > 100 µM | –
19 | O=P1(c2ccccc2)CCCCC1 | – | > 100 µM | > 100 µM | > 100 µM | > 100 µM | – | > 100 | – | > 100 µM | –
20 | Cc1[nH]c(/C=C2\C(=O)Nc3ccccc32)c(C)c1CCC(=O)O | > 100 µM | – | – | – | – | – | – | – | – | –

Row | SMILES | TGI (MDA-N) | TGI (DLD-1 colon) | TGI (SNB-78 CNS) | TGI (DMS 114 small cell lung) | TGI (KM20L2 colon) | TGI (RXF-631 renal) [µM] | TGI (LXFL 529 NSCLC) [µM] | TGI (XF 498 CNS) | TGI (HOP-18 NSCLC) | further results
21 | CC1(C)CC(=O)C(C=NC(=O)c2ccncc2)=C(O)C1 | > 100 µM | – | – | – | – | – | – | – | – | –
22 | CCOc1ccncc1[N+](=O)[O-] | > 100 µM | – | – | – | – | – | – | – | – | –
23 | COC(=O)/C=C/c1c(CC=C(C)C)ncn1C | – | > 100 µM | > 100 µM | > 100 µM | > 65.8 µM | > 100 | > 100 | > 100 µM | > 100 µM | –
24 | CCCO/S(=N\S(=O)(=O)c1ccccc1)c1ccccc1[N+](=O)[O-] (configuration not stated) | – | > 100 µM | > 100 µM | > 100 µM | > 100 µM | > 100 | > 100 | > 100 µM | – | –
25 | CCn1sc2ccccc2c1=O | 8.99 µM | – | – | – | – | – | – | – | – | –
26 | CC(=O)Oc1ccccc1C(=O)Nc1ncc([N+](=O)[O-])s1 | > 90.1 µM | – | – | – | – | – | – | – | – | –
27 | O=C(O)c1ccc(OCc2ccccc2)c(Cl)c1 | > 100 µM | – | – | – | – | – | – | – | – | –
28 | COc1c[c]([Hg][O]C(C)=O)c(OC)c(NC(=O)CC(C)=O)[c]1[Hg][O]C(C)=O | – | 5.18 µM | – | – | 30.9 µM | – | 2.85 | 3.2 µM | 4.62 µM | GI50 (DLD-1 colon): 2.25 µM; GI50 (HOP-18 NSCLC): 1.96 µM; GI50 (KM20L2 colon): 14.2 µM; GI50 (LXFL 529 NSCLC): 1.42 µM; GI50 (XF 498 CNS): 1.65 µM
29 | CNS(=O)(=O)NNS(=O)(=O)c1ccc(Br)cc1 | – | > 100 µM | > 100 µM | > 100 µM | > 100 µM | > 100 | > 100 | > 100 µM | > 100 µM | –
30 | Cc1nc2sc3c(c2c(=O)[nH]1)CCCC3 | > 100 µM | – | – | – | – | – | – | – | – | –
31 | CC(C)C(=O)NS(=O)(=O)c1ccccc1 | – | > 100 µM | > 100 µM | > 100 µM | > 100 µM | > 100 | > 100 | > 100 µM | > 100 µM | –
32 | CC1COC(C)(C)P(=O)(c2ccccc2)C1 (configuration not stated) | – | > 100 µM | > 100 µM | > 100 µM | > 100 µM | – | > 100 | > 100 µM | > 100 µM | –
33 | CC(C)N(CCn1c2c3ccccc3ccc2c2oc(=O)c3ccccc3c21)C(C)C | – | > 100 µM | > 100 µM | > 100 µM | > 100 µM | > 100 | > 100 | > 100 µM | > 86.6 µM | –
34 | CC(=O)[O][Ga]([Br])[O]C(C)=O | – | > 100 µM | > 100 µM | – | > 100 µM | – | > 100 | > 100 µM | > 100 µM | GI50 (DLD-1 colon): > 100 µM; GI50 (HOP-18 NSCLC): > 100 µM; GI50 (SNB-78 CNS): > 100 µM; GI50 (KM20L2 colon): > 100 µM; GI50 (LXFL 529 NSCLC): > 100 µM; GI50 (XF 498 CNS): > 100 µM
35 | Cc1c(/C=N/NC(=O)c2ccc(Cl)cc2)c(=O)n(-c2ccccc2)n1C | – | > 100 µM | > 100 µM | > 100 µM | > 100 µM | – | > 100 | – | > 100 µM | –
36 | CCN1CCC(O)(/C=C/c2ccc(C)cc2)C(C(=O)/C=C/c2ccc(C)cc2)C1 (configuration not stated) | 10.3 µM | – | – | – | – | – | – | – | – | –
37 | O=C(O)CC(NC(=O)CP(=O)(O)O)C(=O)O (configuration not stated) | > 10000 µM | 9920 µM | > 10000 µM | > 10000 µM | > 10000 µM | – | – | > 3160 µM | > 9690 µM | GI50 (MDA-N): 54.1 µM; TGI (SN12K1 renal): > 10000 µM; TGI (P388/ADR leukemia): > 8350 µM; TGI (P388 leukemia): > 5860 µM
38 | O=C(/C=C/c1ccccc1Cl)NC1C=Nc2ccc([N+](=O)[O-])cc2NC1 (configuration not stated) | – | > 100 µM | > 100 µM | > 100 µM | > 100 µM | – | > 100 | > 100 µM | > 100 µM | –
39 | O=Cc1ccc2c(c1-c1c(C=O)ccc3c1OCO3)OCO2 | – | > 100 µM | > 100 µM | > 100 µM | > 100 µM | – | > 100 | – | > 100 µM | –
